Measurements: patent US12384775B2, “Pyrimid-2-yl-pyrazole compounds as IRAK inhibitors” (Rigel Pharmaceuticals, Inc., priority 2022, dated 2025)

Legend:
IRAK4 = target: T1, IRAK4 (Homo sapiens, UniProt Q9NWZ3); test: IRAK4 Z'-LYTE assay; assay type: biochemical; conditions: for IC50: n = 1
T1 construct: purchased Signalchem I12-10G-20
T1 sequence (Q9NWZ3 1-460): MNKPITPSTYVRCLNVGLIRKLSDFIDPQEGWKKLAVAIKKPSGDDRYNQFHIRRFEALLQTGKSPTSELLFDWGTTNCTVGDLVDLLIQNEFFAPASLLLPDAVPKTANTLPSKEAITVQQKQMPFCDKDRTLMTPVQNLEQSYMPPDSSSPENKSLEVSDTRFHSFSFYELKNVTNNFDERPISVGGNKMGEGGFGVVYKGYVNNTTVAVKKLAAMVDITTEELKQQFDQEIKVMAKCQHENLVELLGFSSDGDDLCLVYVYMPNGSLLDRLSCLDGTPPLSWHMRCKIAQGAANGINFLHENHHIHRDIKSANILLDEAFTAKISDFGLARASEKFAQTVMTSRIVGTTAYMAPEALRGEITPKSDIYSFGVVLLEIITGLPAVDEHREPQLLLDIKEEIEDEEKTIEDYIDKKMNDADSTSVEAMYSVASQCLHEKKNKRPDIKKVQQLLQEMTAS
Protocol: • Bar-coded Corning, low volume NBS, black 384-well plate (Corning Cat. #4514) • Test Compounds: The Test Compounds are screened in 1% DMSO (final) in the well. For 10 point titrations, 3-fold serial dilutions are conducted from 10 µM. • Peptide/Kinase Mixture: The 2×IRAK4/Ser/Thr 07 mixture is prepared in 50 mM HEPES pH 7.5, 0.01% BRIJ-35, 10 mM MnCl2, 1 mM EGTA, 2 mM DTT, 0.02% NaN3. • ATP Solution: All ATP Solutions are diluted to a 4× working concentration in Kinase Buffer (50 mM HEPES pH 7.5, 0.01% BRIJ-35, 10 mM MgCl2, 1 mM EGTA). ATP Km apparent is previously determined using a Z-LYTE® assay. • Development Reagent Solution: The Development Reagent is diluted 1:45000 in Development Buffer. General Method • 1. 100 nL—100× Test Compound in 100% DMSO • 2. […]—Kinase buffer • 3. 5 μL—2× Peptide/Kinase Mixture • 4. 2.5 μL—4×ATP Solution
The final 10 μL Kinase Reaction consists of 3.45-63.6 ng IRAK4 and 2 μM Ser/Thr 07 in 50 mM HEPES pH 7.5, 0.01% BRIJ-35, 5 mM MgCl2, 5 mM MnCl2, 1 mM EGTA, 1 mM DTT, 0.01% NaN3. • 5. 30-second plate shake • 6. 60-minute Kinase Reaction incubation at room temperature • 7. 5 μL—Development Reagent Solution • 8. 30-second plate shake • 9. 60-minute Development Reaction incubation at room temperature • 10. Read on fluorescence plate reader and analyze the data

IRAK1 = IRAK1 (Homo sapiens, UniProt P51617); test: IRAK1 Adapta assay; assay type: biochemical; conditions: for IC50: n = 1, read-out: IRAK4 IC50 Adapta (n = 1)
Protocol: • Bar-coded Corning, low volume, white 384-well plate (Corning Cat. #4512) • Test Compounds: The Test Compounds are screened in 1% DMSO (final) in the well. For 10 point titrations, 3-fold serial dilutions 10 μM. • Substrate/Kinase Mixture: The 2×IRAK1/Histone H3 (1-20) peptide mixture is prepared in 50 mM HEPES pH 7.5, 0.01% BRIJ-35, 10 mM MgCl2, 1 mM EGTA. • ATP Solution: All ATP Solutions are diluted to a 4× working concentration in water. • ATP Km apparent is previously determined using a radiometric assay except when no substrate is available in which case an Adapta assay is conducted. • Detection Mix: The Detection Mix is prepared in TR-FRET Dilution Buffer. The Detection mix consists of EDTA (30 mM), Eu-anti-ADP antibody (6 nM) and ADP tracer. The detection mix contains the EC60 concentration of tracer for 5-150 μM ATP. IRAK1 Method • 1. 100 nL—100× Test Compound in 100% DMSO • 2. 2.4 μL—30 mM HEPES • 3. 2.5 μL—4×ATP Solution • 4. 5 μL—2× Substrate/Kinase Mixture
The final 10 μL Kinase Reaction consists of 3.17-42 ng IRAK1 and 100 μM Histone H3 (1-20) peptide in 32.5 mM HEPES pH 7.5, 0.005% BRIJ-35, 5 mM MgCl2, 0.5 mM EGTA. • 5. 30-second plate shake • 6. 1-minute centrifuge at 1000× g • 7. 60-minute Kinase Reaction incubation at room temperature • 8. 5 μL—Detection Mix • 9. 30-second plate shake • 10. 1-minute centrifuge at 1000× g • 11. 60-minute Detection Mix equilibration at room temperature • 12. Read on fluorescence plate reader and analyze the data

[1] = Plasma protein binding, equilibrium dialysis (RED), dog; assay type: in vitro ADME; conditions: drug 5 μM; for fraction unbound at 5 μM: read-out: % bound (converted)
Protocol: (§1) Brain and plasma drug binding were performed by equilibrium dialysis using the Rapid Equilibrium Dialysis (RED) device. Briefly, 300 μL of plasma or brain homogenate (1 brain/3 buffer) containing drug (5 μM) was equilibrated (4-18 h) against 500 μL of buffered saline. After incubation, the concentration of drug in plasma/brain homogenate and buffer was determined by LC-MS/MS.
(§2) Recovery is calculated by determining the total amount of drug in 50 μL of plasma and 50 μL buffer after the incubation and comparing that value to the amount of drug in 50 μL of a plasma sample that was not incubated. For the protein binding assay, drug was added to the plasma and this plasma was added to one side of the dialysis device while buffer was added to the other. After filing the plasma chamber of the equilibrium device, a 50 μL aliquot of plasma was mixed with 50 μL of buffer and then quenched with stop reagent. Drug recovery=(Drug buffer+Drug plasma)/(drug in initial plasma)

[2] = Plasma protein binding, equilibrium dialysis (RED), mouse; assay type: in vitro ADME; conditions: drug 5 μM; for recovery at 5 μM: low due to hydrolysis; for fraction unbound at 5 μM: read-out: % bound (converted)
Protocol: as §1, §2

IRAK1, sequence (P51617 whole entry): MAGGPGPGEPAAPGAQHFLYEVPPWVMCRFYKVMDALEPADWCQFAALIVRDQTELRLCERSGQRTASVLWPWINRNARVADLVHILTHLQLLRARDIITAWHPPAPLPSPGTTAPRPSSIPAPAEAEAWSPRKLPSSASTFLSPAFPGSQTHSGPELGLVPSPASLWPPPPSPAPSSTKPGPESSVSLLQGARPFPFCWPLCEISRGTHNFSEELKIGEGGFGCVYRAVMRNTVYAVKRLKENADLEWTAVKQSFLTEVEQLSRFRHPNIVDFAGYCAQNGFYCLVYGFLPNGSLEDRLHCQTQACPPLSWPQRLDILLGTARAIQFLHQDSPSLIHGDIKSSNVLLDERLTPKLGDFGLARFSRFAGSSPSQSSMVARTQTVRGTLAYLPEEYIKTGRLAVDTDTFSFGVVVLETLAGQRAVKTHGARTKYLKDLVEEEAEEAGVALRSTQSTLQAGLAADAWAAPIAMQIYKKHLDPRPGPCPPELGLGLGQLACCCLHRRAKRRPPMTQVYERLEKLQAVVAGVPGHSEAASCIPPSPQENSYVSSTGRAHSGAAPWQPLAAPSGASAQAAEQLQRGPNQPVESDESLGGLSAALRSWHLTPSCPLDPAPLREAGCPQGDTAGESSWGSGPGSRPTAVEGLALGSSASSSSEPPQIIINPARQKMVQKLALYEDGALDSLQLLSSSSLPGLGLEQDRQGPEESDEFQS

| Compound | IC50 (IRAK4) | IC50 (IRAK1) | recovery at 5 μM [1] | fraction unbound at 5 μM [1] | recovery at 5 μM [2] | fraction unbound at 5 μM [2] | EC50 (IRAK4) | EC50 (IRAK1) |
| --- | --- | --- | --- | --- | --- | --- | --- | --- |
| CCO[C@H]1CC[C@H](n2cc(NC(=O)c3csc(-c4cn[nH]c4)n3)c(-c3nc(F)ccc3F)n2)CC1 [Comparison-1, reference compound] | 15 nM | 14 nM | 77.2% | 0.01 | 10% | 0.022 | – | – |
| CCO[C@H]1CC[C@H](n2cc(NC(=O)c3csc(-c4cn[nH]c4)n3)c(-c3ncccn3)n2)CC1 [Compound I-1, N-(1-((1r,4r)-4-ethoxycyclohexyl)-3-(pyrimidin-2-yl)-1H-pyrazol-4-yl)-2-(1H-pyrazol-4-yl)thiazole-4-carboxamide] | 6 nM | 4 nM | 70.7% | 0.066 | 23.6% | 0.085 | 6 nM | 4 nM |
